These results are taken from PMC9552116 (Biochemistry and Biophysics Reports, 2022).

Bridge positions count the residues as written; N and C are the ends. Square brackets hold non-standard residues; d marks the D form. Peptide text beside a SMILES is read from it. * marks the point of attachment. Biotin = O=C1N[C@H]2[C@H](CS[C@H]2CCCCC(=O)*)N1; Nle = CCCC[C@H](N)C(=O)O

One data set has as its target human LRP1(CL4)-Fc (Homo sapiens, UniProt Q07954). Briefly: Cell-free ELISA, binding of biotinylated peptide to captured LRP1. To be noted: Supplementary Fig. S1.
The target of another data set is human LRP1(CL3)-Fc (Homo sapiens, UniProt Q07954). Described as above. To be noted: Fig. 3, n = 3.
The target of another data set is human LRP1(CL2)-Fc (Homo sapiens, UniProt Q07954). The data set is described as above. To be noted: Fig. 3, n = 3.
The next data set has as its system LRP1. To be noted: read-out: LRP1-binding EC50; ref [18]; cited from earlier work.
A further data set concerns LRP1(CL2). The note with it: ref [18]; cited from earlier work.
The subject of data set [1] is in vitro rat BBB model kit (RBT-24H). Briefly: BBB permeability in in vitro rat BBB model. Type of data set: in vitro ADME. The note with it: 1 μM input, 30 min, 37 °C, fluorescence, n = 1.

Regarding `CSCC[C@@H]1NC(=O)[C@H](CCC(=O)O)NC(=O)[C@H](C)NC(=O)[C@H](CC(C)C)NC(=O)[C@H](CCSC)NC(=O)[C@H](Cc2ccc(O)cc2)NC(=O)[C@H](CCCCN)NC(=O)[C@H](Cc2ccc(O)cc2)NC(=O)[C@H]([C@@H](C)O)NC(=O)[C@@H](NC(=O)[C@@H]2CCCN2C(=O)[C@@H](NC(=O)CNC(=O)[C@H](CCCCNC(=O)CCCC[C@@H]2SC[C@@H]3NC(=O)N[C@@H]32)NC(C)=O)[C@@H](C)O)CSSC[C@@H](C(=O)O)NC1=O` [Biotin-Pep0] (Ac-K(Biotin)GTPCTYKYMLAEMC-OH; disulfide 5-15; N-terminus and C-terminus assumed), the “binding activity to LRP1(CL4)” value at human LRP1(CL4)-Fc is on record as “moderate binding activity”.
Consider `CCCC[C@@H]1NC(=O)[C@H](CCC(=O)O)NC(=O)[C@H](C)NC(=O)[C@H](CC(C)C)NC(=O)[C@H](CCCC)NC(=O)[C@H](Cc2ccc(O)cc2)NC(=O)[C@H](CCCCN)NC(=O)[C@H](Cc2ccc(O)cc2)NC(=O)[C@H]([C@@H](C)O)NC(=O)[C@@H](NC(=O)[C@@H]2CCCN2C(=O)[C@@H](NC(=O)CNC(=O)[C@H](CCCCNC(=O)CCCC[C@@H]2SC[C@@H]3NC(=O)N[C@@H]32)NC(C)=O)[C@@H](C)O)CSSC[C@@H](C(=O)O)NC1=O` [Biotin-KS-487] (Ac-K(Biotin)GTPCTYKY[Nle]LAE[Nle]C-OH; disulfide 5-15), for which the “binding to LRP1(CL3)” value on human LRP1(CL3)-Fc was “no binding or slight binding”. The “binding to LRP1(CL2)” value at human LRP1(CL2)-Fc was “no binding or slight binding”.
In the case of `CCCC[C@H](NC(=O)[C@H](CCC(=O)O)NC(=O)[C@H](C)NC(=O)[C@H](CC(C)C)NC(=O)[C@H](CCCC)NC(=O)[C@H](Cc1ccc(O)cc1)NC(=O)[C@H](CCCCN)NC(=O)[C@H](Cc1ccc(O)cc1)NC(=O)[C@@H](NC(=O)[C@H](CS)NC(=O)[C@@H]1CCCN1C(=O)[C@@H](NC(=O)CNC(=O)[C@H](CCCCNC(=O)CCCC[C@@H]1SC[C@@H]2NC(=O)N[C@@H]21)NC(C)=O)[C@@H](C)O)[C@@H](C)O)C(=O)N[C@@H](CS)C(=O)O` [Biotin-KS-487(linear)] (Ac-K(Biotin)GTPCTYKY[Nle]LAE[Nle]C-OH), the “binding to LRP1(CL3)” value at human LRP1(CL3)-Fc is given as “no binding or slight binding”. Moreover, on human LRP1(CL2)-Fc, the “binding to LRP1(CL2)” value is listed as “no binding or slight binding”.
As to TWPKHFDKHTFYSILKLGKH-OH [Pep L57], the EC50 (commonly the concentration giving half of the maximal effect) with LRP1 is 45 nM. The “cross-reactivity to LRP1(CL2)” value with LRP1(CL2) is reported as “cross-reactivity”.
Consider `C[C@@H](O)[C@H](NC(=O)CNC(=O)[C@@H](N)CCCCNC(=O)c1ccc2c(c1)C(=O)OC21c2ccc(O)cc2Oc2cc(O)ccc21)C(=O)N[C@@H](Cc1ccccc1)C(=O)N[C@@H](Cc1ccccc1)C(=O)N[C@@H](Cc1ccc(O)cc1)C(=O)NCC(=O)NCC(=O)N[C@@H](CO)C(=O)N[C@@H](CCCNC(=N)N)C(=O)NCC(=O)N[C@@H](CCCCN)C(=O)N[C@@H](CCCNC(=N)N)C(=O)N[C@@H](CC(N)=O)C(=O)N[C@@H](CC(N)=O)C(=O)N[C@@H](Cc1ccccc1)C(=O)N[C@@H](CCCCN)C(=O)N[C@H](C(=O)N[C@@H](CCC(=O)O)C(=O)N[C@@H](CCC(=O)O)C(=O)N[C@@H](Cc1ccc(O)cc1)C(=O)O)[C@@H](C)O` [Pep 5FAM-ANG2], for which the “% input crossed to the brain side” value in data set [1] is listed as “below 0.5%”.
